ChEMBL document CHEMBL1138878 (J Med Chem, 2006)
Calls of active or inactive are those of the source. No cut-off for these calls is given here.

Assays:
[1] = test system: Radical scavenging activity; experiment: Antioxidant activity measured as ability to reduce ferric tripyridyltriazine complex at 15 uM by FRAP assay; type: functional
[2] = test system: Radical scavenging activity; experiment: Antioxidant activity measured as ability to react with ABTS radical cation at 15 uM by TRAP assay; type: functional
[3] = test system: HEK-293T; experiment: Loss in viability of human HEK293T cells at 15 uM after 7 hrs relative to control; type: functional, cell-based
[4] = test system: HEK-293T; experiment: Inhibition of TNF-alpha-induced NF-kappaB activation in HEK293T cells; type: functional, cell-based; settings: Homo sapiens
[5] = test system: BV-2; experiment: Suppression of LPS-stimulated COX2 mRNA expression in mouse BV2 cells at 0.15 uM; type: functional, cell-based
[6] = test system: BV-2; experiment: Suppression of LPS-stimulated COX2 mRNA expression in mouse BV2 cells at 4 uM; type: functional
[7] = test system: BV-2; experiment: Suppression of LPS-stimulated COX2 mRNA expression in mouse BV2 cells at 20 uM; type: functional, cell-based

SMILES	Activity [1]	Activity [2]	Activity [3]	IC50 [4] [µM]	Activity [5]	Activity [6] [%]	Activity [7]
COc1ccc(/C=C/c2ccc(O)c(O)c2)cc1	Active	Active	inactive	0.6			
COc1ccc(/C=C/c2cccc(O)c2O)cc1	Active	Active	inactive				
COc1ccc(/C=C/c2ccccc2Cl)cc1	inactive	inactive	inactive	1.5			
COc1ccc(/C=C/c2ccc(C)cc2)cc1	inactive	inactive	inactive	0.9			
COc1ccc(/C=C/c2ccccc2F)cc1	inactive	inactive	inactive	0.15	Active		
COc1ccc(/C=C/c2cccc(C)c2)cc1	inactive	inactive	inactive	0.8			
COc1ccc(/C=C/c2cccc(Cl)c2)cc1	inactive	inactive	inactive	1			
CCOc1ccc(/C=C/c2ccccc2)cc1	inactive	inactive	inactive				
COc1ccc(/C=C/c2cccc(OC)c2)cc1	inactive	inactive	inactive	0.6			
Oc1ccc(/C=C/c2cc(O)cc(O)c2)cc1 [RESVERATROL]	Active	Active	inactive	20		50	Active
CN(C)c1ccc(/C=C/c2ccccc2)cc1	Active	Active	inactive	0.15	Active		
C(=C\c1ccc2ccccc2c1)/c1ccccc1	inactive	inactive	inactive				
COc1ccc(/C=C/c2cccc(F)c2)cc1	inactive	inactive	inactive				
